Values of other authors as cited in patent US8747898B2, “Controlled release oral dosage form” (Andrx Pharmaceuticals, LLC, priority 1999, dated 2014).
Counter-ions that a name gives are not always drawn.

Legend:
[1] = in words
[2] = in words; remark: listed apart in the source
[3] = system: norepinephrine uptake; conditions: in words
[4] = system: monoamine oxidase; conditions: in words

CC(NC(C)(C)C)C(=O)c1cccc(Cl)c1 (stereo not drawn) [Bupropion hydrochloride, bupropion hydrochloride]
permeability [1]: high permeability
solubility in water [2]: highly soluble

CC(NC(C)(C)C)C(=O)c1cccc(Cl)c1 (stereo not drawn) [bupropion]
blockade of norepinephrine uptake [3]: weak blocker
inhibition of monoamine oxidase [4]: does not inhibit
terminal T ½ (following single doses): about 14 hours
mean half-life of distributive phase (two-compartment model): 3 to 4 h
